Assay: xn = mol fraction of the nth substance listed
Details: for surface tension liquid-gas: Capillary rise; for viscosity / mass density: Liquid; for viscosity: Falling or rolling sphere viscometry; for mass density: Vibrating tube method

CC(=O)OCc1ccccc1 [benzyl ethanoate] + OCc1ccccc1
surface tension liquid-gas [mN/m]
Details	x1 = 0.1001	x1 = 0.2001	x1 = 0.3	x1 = 0.4001	x1 = 0.5	x1 = 0.6001	x1 = 0.6999	x1 = 0.8	x1 = 0.9	x1 = 1
293.15 K	39.2	39.2	39.1	39	38.7	38.4	38.1	37.8	37.5	37.3
303.15 K	38	37.9	37.8	37.5	37.1	36.7	36.3	36	35.8	35.6
313.15 K	37	36.8	36.4	36	35.6	35.2	34.8	34.6	34.4	34.3
323.15 K	36	35.7	35.2	34.8	34.3	33.9	33.5	33.4	33.3	33.2

101 kPa
Details	mass density, 293.15 K [kg/m3]	mass density, 303.15 K [kg/m3]	mass density, 313.15 K [kg/m3]	mass density, 323.15 K [kg/m3]	viscosity, 293.15 K [mPa·s]	viscosity, 303.15 K [mPa·s]	viscosity, 313.15 K [mPa·s]	viscosity, 323.15 K [mPa·s]
x1 = 0.05	1046.29	1038.18	1030.21	1021.94	5.782	4.21	3.18	2.45
x1 = 0.1001	1047.03	1038.83	1030.76	1022.36	5.319	3.894	3.006	2.349
x1 = 0.1502	1047.73	1039.44	1031.27	1022.75	4.905	3.623	2.848	2.232
x1 = 0.2001	1048.38	1040.01	1031.72	1023.12	4.536	3.378	2.687	2.125
x1 = 0.25	1048.99	1040.58	1032.23	1023.48	4.214	3.165	2.536	2.021
x1 = 0.3	1049.58	1041.11	1032.67	1023.81	3.927	2.972	2.396	1.925
x1 = 0.3498	1050.15	1041.61	1033.08	1024.13	3.678	2.806	2.265	1.838
x1 = 0.4001	1050.71	1042.1	1033.48	1024.44	3.454	2.662	2.154	1.756
x1 = 0.45	1051.24	1042.57	1033.86	1024.73	3.252	2.535	2.056	1.683
x1 = 0.5	1051.77	1043.01	1034.24	1025.02	3.087	2.432	1.966	1.62
x1 = 0.5501	1052.26	1043.43	1034.6	1025.28	2.93	2.332	1.903	1.561
x1 = 0.6001	1052.74	1043.84	1034.94	1025.53	2.795	2.234	1.832	1.521
x1 = 0.65	1053.19	1044.24	1035.27	1025.79	2.684	2.171	1.774	1.482
x1 = 0.6999	1053.64	1044.62	1035.57	1026.04	2.589	2.091	1.728	1.444
x1 = 0.7502	1054.03	1044.99	1035.87	1026.28	2.505	2.035	1.684	1.41
x1 = 0.8	1054.42	1045.35	1036.18	1026.52	2.428	1.985	1.646	1.387
x1 = 0.85	1054.77	1045.7	1036.48	1026.77	2.376	1.941	1.613	1.361
x1 = 0.9	1055.11	1046.05	1036.79	1027.01	2.343	1.902	1.572	1.339
x1 = 0.95	1055.46	1046.4	1037.11	1027.26	2.326	1.867	1.524	1.308
x1 = 1	1055.81	1046.74	1037.42	1027.51	2.324	1.836	1.474	1.256

CC(=O)OCc1ccccc1 [benzyl ethanoate] + CCO
surface tension liquid-gas [mN/m]
Details	293.15 K	303.15 K	313.15 K	323.15 K
x2 = 0	37.3	35.6	34.3	33.2
x2 = 0.0502	36.3	34.8	33.6	32.5
x2 = 0.1	35.4	34	32.8	31.8
x2 = 0.1498	34.4	33.2	32	31.1
x2 = 0.1998	33.4	32.4	31.3	30.4
x2 = 0.2499	32.5	31.6	30.5	29.6
x2 = 0.2998	31.6	30.8	29.8	28.9
x2 = 0.35	30.8	30	29.1	28.2
x2 = 0.4	30	29.2	28.4	27.5
x2 = 0.4501	29.3	28.5	27.7	26.7
x2 = 0.5	28.6	27.8	27	26
x2 = 0.5499	27.9	27.1	26.4	25.3
x2 = 0.6	27.2	26.4	25.8	24.7
x2 = 0.65	26.7	25.8	25.2	24.1
x2 = 0.7	26.2	25.2	24.6	23.5
x2 = 0.7499	25.8	24.8	24	22.9
x2 = 0.7999	25.2	24.2	23.4	22.3
x2 = 0.85	24.5	23.6	22.8	21.7
x2 = 0.9	23.8	22.9	22.1	21
x2 = 0.95	23.1	22.2	21.4	20.3

100.8 kPa
Details	mass density, 293.15 K [kg/m3]	mass density, 303.15 K [kg/m3]	mass density, 313.15 K [kg/m3]	mass density, 323.15 K [kg/m3]	viscosity, 293.15 K [mPa·s]	viscosity, 303.15 K [mPa·s]	viscosity, 313.15 K [mPa·s]	viscosity, 323.15 K [mPa·s]
x2 = 0	1055.81	1046.74	1037.42	1027.51	2.324	1.836	1.474	1.256
x2 = 0.0502	1050.61	1041.18	1031.85	1021.88	2.18	1.75	1.413	1.22
x2 = 0.1	1044.89	1035.33	1025.96	1015.97	2.063	1.663	1.362	1.187
x2 = 0.1498	1038.77	1029.09	1019.7	1009.69	1.962	1.595	1.308	1.154
x2 = 0.1998	1032.15	1022.42	1012.98	1002.94	1.879	1.534	1.265	1.12
x2 = 0.2499	1025.14	1015.3	1005.82	995.85	1.808	1.477	1.226	1.086
x2 = 0.2998	1017.51	1007.78	998.2	988.26	1.736	1.42	1.181	1.05
x2 = 0.35	1009.27	999.68	989.97	980.03	1.672	1.375	1.143	1.015
x2 = 0.4	1000.55	990.86	981.2	971.24	1.613	1.327	1.101	0.979
x2 = 0.4501	991.15	981.38	971.7	961.72	1.551	1.281	1.067	0.943
x2 = 0.5	980.94	971.11	961.42	951.49	1.49	1.233	1.029	0.911
x2 = 0.5499	969.73	959.94	950.19	940.31	1.439	1.194	0.999	0.882
x2 = 0.6	957.31	947.61	937.83	927.98	1.392	1.151	0.964	0.853
x2 = 0.65	943.77	933.97	924.36	914.58	1.347	1.115	0.93	0.825
x2 = 0.7	928.69	919.03	909.51	899.72	1.305	1.077	0.891	0.795
x2 = 0.7499	912.06	902.5	893.04	883.26	1.267	1.038	0.867	0.77
x2 = 0.7999	893.44	883.9	874.6	864.86	1.232	1.009	0.841	0.743
x2 = 0.85	872.42	863.07	853.75	844.15	1.202	0.989	0.823	0.723
x2 = 0.9	848.54	839.36	830.17	820.71	1.188	0.982	0.812	0.704
x2 = 0.95	821.38	812.21	803.27	794.02	1.178	0.975	0.808	0.692

Reference: the NIST ThermoML archive (doi:10.1021/je201009c)
